The subject of test [1] is CGS 21680-induced catalepsy. Briefly: Activity on CGS 21680-induced catalepsy. The settings on record: 10 mg/kg oral; for inhibition in vivo at 10 mg/kg: Mus musculus, 1 h, percentage reduction of total score vs control group, read-out: Remission ratio (%); for Total score: total catalepsy score of 10 mice (maximum 50 points), 1 hour after administration. Format: in vivo, mouse. As to the method: This test was carried out using 10 animals per group of male ddY mice of 5 week age (22 to 25 g in body weight, Japan SLC). […] One hour after the administration of the test compound, only forelimbs or only hindlimbs of each animal were laid on a vertically arranged stand made of acryl, having a size of 4.5 cm in height and 1.0 cm in width, to measure catalepsy symptoms. All of the test compounds were administered orally in a dose of 10 mg/kg.
The effect was judged by total catalepsy scores of 10 animals in one group (the maximum score is 50 points). When total score was 40 points or less, the activity of the compounds was judged positive. The number of animals showing remission of catalepsy was expressed by the number of cases in which the catalepsy score was 4 points or less in 10 cases. The catalepsy remission ratio was expressed as the percentage reduction of the total score in the test compound-administered group to the total score in the control group.

Test [2] concerns reserpine-induced catalepsy. Briefly: Activity on reserpine-induced catalepsy. The format is in vivo, mouse. To be noted: oral; for Remission ratio (%): percentage reduction of total score vs control group; for Total score: total catalepsy score of 10 mice (maximum 50 points), reserpine 5 mg/kg s.c., 1 hour after administration. As for the experimental part: This test was carried out using 10 animals per group of male ddY mice of 5 week age (22 to 24 g in body weight, Japan SLC). […] Reserpine (5 mg/kg: apoplon, Daiichi Pharmaceutical Co., Ltd.; diluted with distilled water) was subcutaneously administered, and catalepsy-inducing activity was observed from 18 hours after the administration. […] Each test compound was suspended in distilled water for injection containing 0.5% MC (manufactured by Otsuka Pharmaceutical Co., Ltd.) The suspension containing each of the test compounds or a solution containing no test compound (distilled water for injection containing 0.5% MC (manufactured by Otsuka Pharmaceutical Co., Ltd.); control) was orally administered (0.1 mL per 10 g mouse body weight) and, one hour after the administration of test compound, only forelimbs or only hindlimbs of each animal were laid on a stand having a size of 4.5 cm in height and 1.0 cm in width, to measure catalepsy symptoms.
The effect was judged by total catalepsy scores of 10 animals in one group (the maximum is 50 points). When the total score was 40 points or less, the activity of the test compound was judged positive. The number of animals showing remission of catalepsy was expressed by the number of cases in which the catalepsy score was 4 points or less in 10 cases. The catalepsy remission ratio was expressed as the percentage reduction of the total score in the test compound-administered group to the total score in the control group.

Test [3] has as its target T1, Rat A2A receptor (Rattus norvegicus, UniProt P30543).
T1 construct: from tissue; host or cells: rat corpus striatum membrane preparation
Nature of the test: Adenosine A2A receptor binding test (3H-CGS 21680 binding). To be noted: rat corpus striatum. As for the experimental part:
The final precipitate was suspended in 50 mmol/L Tris-HCl buffer (containing 10 mmol/L magnesium chloride and 0.02 unit/mg tissue of adenosine deaminase (manufactured by Sigma Co.)) by adding the buffer to the final precipitate so as to give a tissue concentration of 5 mg (wet weight)/mL.
Inhibition ratio (%)={1−(amount of the binding in the presence of the test compound−amount of the non-specific binding)/(amount of the total binding−amount of the non-specific binding)}×100

The subject of test [4] is ddY male mice. Briefly: Forced swimming method (measurement of immobility time). The format is in vivo, mouse. The settings on record: oral, one hour before the test; 4 minutes (240 seconds) measurement; 10 mice. As for the experimental part:
Ten animals per group of ddY male mice (21 to 26 g in body weight, Japan SLC) were used as the test animal. During the preliminary feeding period, they were allowed to have feed and water freely in an animal room of a room temperature of 23±1° C. and a humidity of 55±5%. Animals showing abnormal reactions in terms of spontaneous activity, myotonia, eyesight or the like were excluded beforehand. The test compound was suspended in a 0.3% Tween 80 solution and orally administered one hour before the test. In the negative control group, 10 mL/kg of a 0.3% Tween 80 solution alone was orally administered. Measurement of immobility time was carried out in accordance with the method of Porsolt (Arch. int Pharmacodyn., 229: 327-336 (1977)). That is, a cylindrical transparent acrylic water tank (10 cm in diameter and 25 cm in height) was filled with 9 cm in depth of water having a temperature of 23±1° C., and mice were forced to swim for 6 minutes. When mice are put into water, they immediately start to swim trying to escape from the tank, but the motion gradually decreases 1 to 2 minutes thereafter. […] In order to reduce effects of daily rhythm, the test was carried out by using 5 of the 10 animals per group in the morning, and the remaining 5 animals in the afternoon. […]

The subject of test [5] is haloperidol-induced catalepsy. Nature of the test: Activity on haloperidol-induced catalepsy. Format: in vivo, mouse. To be noted: 10 mg/kg oral; for Number of animals showing remission: catalepsy score 4 points or less, out of 10 mice; for Remission ratio (%): percentage reduction of total score vs control group; for Total score: total catalepsy score of 10 mice (maximum 50 points), haloperidol 1.0 mg/kg i.p. As for the experimental part: Parkinson's disease is a disease based on the degeneration and cell death of the nigrostriatal dopaminergic neuron. When haloperidol (dopamine D2 antagonist) is administered, catalepsy is induced by the block of postsynaptic D2 receptor. This haloperidol-induced catalepsy is known as a classic model in which symptoms of Parkinson's disease are produced by drug administration (European Journal of Pharmacology, 182: 327 (1990) and U.S. Pat. No. 3,991,207).
This test was carried out using 10 animals per group of male ddY mice of 5 week age (22 to 24 g in body weight, Japan SLC). Haloperidol (manufactured by Janssen) was suspended in 0.5% MC and administered intraperitoneally into mice at a dose of 1.0 mg/kg. Each test compound was suspended in distilled water for injection containing 0.5% MC (manufactured by Otsuka Pharmaceutical Co., Ltd.) (10 mg/kg). Also, as a control drug, 100 mg/kg of L-DOPA and 25 mg/kg of benserazide were used as a solution by dissolving them into distilled water for injection containing 0.5% MC (manufactured by Otsuka Pharmaceutical Co., Ltd.) One hour after the intraperitoneal injection of haloperidol, the suspension containing each of the test compounds or the solution containing the control drug was orally administered (0.1 mL per 10 g mouse body weight) and, one hour after the administration of the test compound or the control drug, only forelimbs or only hindlimbs of each animal were laid on a stand having a size of 4.5 cm in height and 1.0 cm in width, to measure catalepsy symptoms. The catalepsy score was evaluated by the judging criteria shown in the above-described Table 3.
The effect was judged by total catalepsy scores of 10 animals in one group (the maximum score is 50 points). When the total score was 40 points or less, the activity of the test compounds was judged positive. The number of animals showing remission of catalepsy was expressed by the number of cases in which the catalepsy score was 4 points or less in 10 cases. The catalepsy remission ratio was expressed as the percentage reduction of the total score in the test compound-administered group to the total score in the control group.

The subject of test [6] is MPTP-treated common marmoset. Nature of the test: Parkinson's disease model (common marmoset treated with MPTP). The settings on record: motor disability score (0-17 points), 4 animals. The format is in vivo.
Method: This test was carried out using 4 animals per group of female and male common marmosets of 2 to 3 year age (300 to 375 g in body weight, CLEA Japan). MPTP (manufactured by RBI) was dissolved in physiological saline for injection (manufactured by Otsuka Pharmaceutical Co., Ltd.) and administered to common marmoset once a day for 5 days by subcutaneous injection in a dose of 2.0 mg/kg. Six weeks or more after the administration, animals showing chronic symptoms of Parkinson's disease were used in the test. Each test compound was used by suspending it in 0.3% Tween 80 and 10% sucrose solution. One hour before the administration of the test compound, the animals to be tested were put into an observation cage (equipped with a spontaneous locomotor count measuring apparatus) to adapt them to the environment. Pre-motor disability before administration of the test compound was scored, and was compared with the motor disability score after administration of the test compound. Symptoms of Parkinson's disease were observed from a one way see through window at 30 minutes' interval for 8 hours to score their motor disability. The spontaneous locomotor count was measured at 30 minutes' interval for 12 hours by a computer-controlled automatic measuring apparatus. […]

The structures appear in SMILES notation.

Consider two compounds from US6545000B1, “[1,2,4]triazolo[1,5-c]pyrimidine derivatives” (Kyowa Hakko Kogyo Co., Ltd., priority 1998, dated 2003).

T1 sequence (P30543 whole entry): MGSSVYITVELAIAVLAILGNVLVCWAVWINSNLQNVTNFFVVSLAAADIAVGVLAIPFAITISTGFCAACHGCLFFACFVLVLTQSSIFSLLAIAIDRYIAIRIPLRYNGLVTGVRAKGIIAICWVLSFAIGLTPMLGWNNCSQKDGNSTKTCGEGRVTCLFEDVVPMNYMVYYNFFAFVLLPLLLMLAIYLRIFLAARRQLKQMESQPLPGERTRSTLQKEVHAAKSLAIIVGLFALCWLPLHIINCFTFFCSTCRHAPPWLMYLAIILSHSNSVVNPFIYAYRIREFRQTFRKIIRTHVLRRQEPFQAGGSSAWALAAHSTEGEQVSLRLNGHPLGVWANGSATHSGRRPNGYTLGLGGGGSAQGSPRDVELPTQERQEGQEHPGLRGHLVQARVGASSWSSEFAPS

With `Cc1cc(CN2CCN(c3cc4nc(-c5ccco5)nn4c(N)n3)CC2)no1` [Compound 21, 5-Amino-2-(2-furyl)-7-(4-(5-methylisoxazol-3-ylmethyl)piperazinyl)[1,2,4]triazolo[1,5-c]pyrimidine], in test [1], the inhibition in vivo at 10 mg/kg turned out to be 100% and the Total score is 0. Further, in test [2], the “Remission ratio (%)” value came to 66% and the Total score turned out to be 17. The “Rat A2A receptor inhibition ratio (%)” value in test [3] (10^−6 mol/L test compound) is 90%. In addition, the “Rat A2A receptor inhibition ratio (%)” value in test [3] (10^−7 mol/L test compound) came to 65%. Moreover, the “Immobility time (second)” value in test [4] is recorded as 7.6 ± 3.2 (p < 0.01) second. In test [5], the “Number of animals showing remission” value was determined as 10, the “Remission ratio (%)” value is given as 100% and the Total score was 0.

`CC(C)(O)CN1CCN(c2cc3nc(-c4ccco4)nn3c(N)n2)CC1` [Compound 1, 5-Amino-2-(2-furyl)-7-(4-(2-hydroxy-2-methylpropyl)piperazinyl)[1,2,4]triazolo[1,5-c]pyrimidine]: the “Average score at maximum improvement after administration” value in test [6] (after administration) is recorded as 4.75 ± 0.48 (p < 0.0256). Besides, the “Average score before administration” value in test [6] (before administration of the test compound) came out at 12.75 ± 0.25. In test [1], the inhibition in vivo at 10 mg/kg amounted to 100% and the Total score was 0. Also, in test [2], the “Remission ratio (%)” value is on record as 72% and the Total score is 14. Further, the “Rat A2A receptor inhibition ratio (%)” value in test [3] (10^−6 mol/L test compound) is 81%. Moreover, the “Rat A2A receptor inhibition ratio (%)” value in test [3] (10^−7 mol/L test compound) stood at 42%. Further, in test [5], the “Number of animals showing remission” value is 10, the “Remission ratio (%)” value was 100% and the Total score amounted to 0.
